This is an account of results in ChEMBL document CHEMBL5291721, “A preclinical secondary pharmacology resource illuminates target-adverse drug reaction associations of marketed drugs” (Nat Commun, 2023).

Assay [1] deals with T1, Adenosine receptor A3 (Homo sapiens, UniProt P0DMS8).
T1 sequence (P0DMS8 whole entry): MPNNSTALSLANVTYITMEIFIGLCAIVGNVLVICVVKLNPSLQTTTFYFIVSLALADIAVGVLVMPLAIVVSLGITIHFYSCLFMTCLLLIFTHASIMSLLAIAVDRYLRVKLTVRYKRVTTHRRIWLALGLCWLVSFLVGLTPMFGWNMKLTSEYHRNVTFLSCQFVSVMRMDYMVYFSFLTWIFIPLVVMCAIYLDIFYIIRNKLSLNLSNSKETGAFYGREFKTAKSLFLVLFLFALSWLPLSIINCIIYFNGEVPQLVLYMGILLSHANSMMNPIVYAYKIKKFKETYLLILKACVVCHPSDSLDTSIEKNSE

Assay [2] addresses T2, Alpha-2A adrenergic receptor (Homo sapiens, UniProt P08913).
T2 sequence (P08913 whole entry): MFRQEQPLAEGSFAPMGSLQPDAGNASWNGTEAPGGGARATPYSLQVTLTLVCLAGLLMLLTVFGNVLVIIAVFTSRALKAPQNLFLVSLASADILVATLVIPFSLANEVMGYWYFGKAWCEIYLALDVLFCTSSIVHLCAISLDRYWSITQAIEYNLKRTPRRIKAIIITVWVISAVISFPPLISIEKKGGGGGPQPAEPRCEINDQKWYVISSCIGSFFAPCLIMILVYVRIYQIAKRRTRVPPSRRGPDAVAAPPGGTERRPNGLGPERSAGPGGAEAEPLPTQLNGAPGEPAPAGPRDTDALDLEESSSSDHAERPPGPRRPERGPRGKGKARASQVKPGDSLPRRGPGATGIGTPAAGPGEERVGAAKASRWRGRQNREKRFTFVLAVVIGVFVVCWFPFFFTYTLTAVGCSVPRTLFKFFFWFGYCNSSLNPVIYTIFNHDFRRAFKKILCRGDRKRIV
It counts as functional, cell-based.

The target of assay [3] is T2, Alpha-2A adrenergic receptor. Type of assay: functional, cell-based. This is another data set of the same source.
Assay [4] has as its target T3, Alpha-2C adrenergic receptor (Homo sapiens, UniProt P18825).
T3 sequence (P18825 whole entry): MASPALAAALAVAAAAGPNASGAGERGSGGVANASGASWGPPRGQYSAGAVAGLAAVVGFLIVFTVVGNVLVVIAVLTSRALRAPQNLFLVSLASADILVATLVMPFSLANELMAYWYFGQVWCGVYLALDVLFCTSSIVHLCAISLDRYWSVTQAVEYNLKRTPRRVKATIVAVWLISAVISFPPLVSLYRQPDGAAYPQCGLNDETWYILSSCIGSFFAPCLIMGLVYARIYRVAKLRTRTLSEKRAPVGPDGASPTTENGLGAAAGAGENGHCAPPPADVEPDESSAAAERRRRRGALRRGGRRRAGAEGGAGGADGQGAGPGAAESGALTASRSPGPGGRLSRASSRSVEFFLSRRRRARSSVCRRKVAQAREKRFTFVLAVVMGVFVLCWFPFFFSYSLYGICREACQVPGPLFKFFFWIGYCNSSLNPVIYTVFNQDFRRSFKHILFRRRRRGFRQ
Type of assay: functional.

In assay [5] the target is T4, Cholecystokinin receptor type A (Homo sapiens, UniProt P32238).
T4 sequence (P32238 whole entry): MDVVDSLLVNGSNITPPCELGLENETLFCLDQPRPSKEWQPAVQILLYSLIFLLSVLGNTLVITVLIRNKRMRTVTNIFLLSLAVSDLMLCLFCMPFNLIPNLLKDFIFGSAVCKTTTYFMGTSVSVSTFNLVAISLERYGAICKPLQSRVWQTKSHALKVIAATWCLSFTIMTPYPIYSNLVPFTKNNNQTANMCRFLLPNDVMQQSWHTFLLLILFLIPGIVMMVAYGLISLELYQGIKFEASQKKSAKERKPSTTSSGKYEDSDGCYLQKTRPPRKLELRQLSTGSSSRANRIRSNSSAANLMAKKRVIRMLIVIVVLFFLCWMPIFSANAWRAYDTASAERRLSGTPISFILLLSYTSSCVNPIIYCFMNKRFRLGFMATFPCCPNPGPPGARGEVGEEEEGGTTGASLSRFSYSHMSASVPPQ

In assay [6] the target is D(1A) dopamine receptor (Homo sapiens, UniProt P21728). Type of assay: functional, cell-based.
Assay [7] concerns the target Gamma-aminobutyric acid receptor subunit alpha-1 (Rattus norvegicus, UniProt P62813). It counts as functional.
The target in assay [8] is 5-hydroxytryptamine receptor 2B (Homo sapiens, UniProt P41595). It counts as functional, cell-based.
The target of assay [9] is Voltage-gated inwardly rectifying potassium channel KCNH2 (Homo sapiens, UniProt Q12809). It counts as functional. The note with it: read-out: AC50.
For assay [10], the target named is Melanocortin receptor 3 (Homo sapiens, UniProt P41968).
Assay [11] concerns the target 3',5'-cyclic-AMP phosphodiesterase 4D (Homo sapiens, UniProt Q08499). Type of assay: functional.
In assay [12] the target is T5, Prostaglandin G/H synthase 1 (Rattus norvegicus, UniProt Q63921).
T5 sequence (Q63921 whole entry): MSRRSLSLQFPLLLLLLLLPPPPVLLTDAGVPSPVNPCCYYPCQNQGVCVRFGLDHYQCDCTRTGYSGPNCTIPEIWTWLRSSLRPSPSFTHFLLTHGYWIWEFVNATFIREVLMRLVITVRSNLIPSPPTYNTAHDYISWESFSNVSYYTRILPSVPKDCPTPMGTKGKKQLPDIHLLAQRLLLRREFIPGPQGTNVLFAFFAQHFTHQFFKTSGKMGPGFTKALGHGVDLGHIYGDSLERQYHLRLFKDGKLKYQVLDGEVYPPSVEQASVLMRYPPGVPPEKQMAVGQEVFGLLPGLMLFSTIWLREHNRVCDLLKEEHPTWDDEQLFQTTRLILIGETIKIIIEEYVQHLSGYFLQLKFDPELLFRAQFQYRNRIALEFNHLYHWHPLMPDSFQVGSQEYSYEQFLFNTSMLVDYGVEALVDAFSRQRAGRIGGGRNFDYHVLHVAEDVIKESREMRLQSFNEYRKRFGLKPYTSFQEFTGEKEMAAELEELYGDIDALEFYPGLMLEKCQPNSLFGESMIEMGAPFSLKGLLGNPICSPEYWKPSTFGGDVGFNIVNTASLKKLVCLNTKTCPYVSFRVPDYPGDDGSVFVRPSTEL
It counts as functional.

The target of assay [13] is D(3) dopamine receptor (Homo sapiens, UniProt P35462).
Further: assay procedure not described here.

Chain of Voltage-gated inwardly rectifying potassium channel KCNH2 (Q12809 whole entry): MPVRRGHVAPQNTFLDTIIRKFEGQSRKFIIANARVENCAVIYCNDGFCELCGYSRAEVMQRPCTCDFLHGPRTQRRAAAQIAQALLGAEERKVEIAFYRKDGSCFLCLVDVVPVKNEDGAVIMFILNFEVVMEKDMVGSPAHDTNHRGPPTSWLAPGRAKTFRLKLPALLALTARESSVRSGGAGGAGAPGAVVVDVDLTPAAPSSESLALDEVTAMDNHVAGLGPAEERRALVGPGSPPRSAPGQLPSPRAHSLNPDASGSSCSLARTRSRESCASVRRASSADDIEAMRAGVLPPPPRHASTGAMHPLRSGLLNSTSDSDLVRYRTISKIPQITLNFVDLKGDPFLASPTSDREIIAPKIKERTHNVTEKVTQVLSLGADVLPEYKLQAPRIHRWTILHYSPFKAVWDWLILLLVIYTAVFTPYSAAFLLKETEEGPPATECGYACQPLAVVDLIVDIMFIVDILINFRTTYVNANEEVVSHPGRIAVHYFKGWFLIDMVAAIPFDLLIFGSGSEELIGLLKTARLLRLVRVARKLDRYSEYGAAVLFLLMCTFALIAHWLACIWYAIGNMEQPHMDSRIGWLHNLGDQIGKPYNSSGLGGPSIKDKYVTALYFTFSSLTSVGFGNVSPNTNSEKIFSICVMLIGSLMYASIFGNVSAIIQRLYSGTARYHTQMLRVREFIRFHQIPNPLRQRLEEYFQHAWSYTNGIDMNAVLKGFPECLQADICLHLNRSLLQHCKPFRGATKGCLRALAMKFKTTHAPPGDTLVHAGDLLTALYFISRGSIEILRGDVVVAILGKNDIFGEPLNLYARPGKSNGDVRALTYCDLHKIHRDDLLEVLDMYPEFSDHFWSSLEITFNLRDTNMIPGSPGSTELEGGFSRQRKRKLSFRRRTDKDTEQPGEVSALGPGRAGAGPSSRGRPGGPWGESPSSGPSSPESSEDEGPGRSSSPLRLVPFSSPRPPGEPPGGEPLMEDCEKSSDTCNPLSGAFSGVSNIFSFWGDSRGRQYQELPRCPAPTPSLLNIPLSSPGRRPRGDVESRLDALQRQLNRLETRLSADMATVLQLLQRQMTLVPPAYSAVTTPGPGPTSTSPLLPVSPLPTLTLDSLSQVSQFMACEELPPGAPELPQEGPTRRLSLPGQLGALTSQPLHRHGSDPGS
Chain of 5-hydroxytryptamine receptor 2B (P41595 whole entry): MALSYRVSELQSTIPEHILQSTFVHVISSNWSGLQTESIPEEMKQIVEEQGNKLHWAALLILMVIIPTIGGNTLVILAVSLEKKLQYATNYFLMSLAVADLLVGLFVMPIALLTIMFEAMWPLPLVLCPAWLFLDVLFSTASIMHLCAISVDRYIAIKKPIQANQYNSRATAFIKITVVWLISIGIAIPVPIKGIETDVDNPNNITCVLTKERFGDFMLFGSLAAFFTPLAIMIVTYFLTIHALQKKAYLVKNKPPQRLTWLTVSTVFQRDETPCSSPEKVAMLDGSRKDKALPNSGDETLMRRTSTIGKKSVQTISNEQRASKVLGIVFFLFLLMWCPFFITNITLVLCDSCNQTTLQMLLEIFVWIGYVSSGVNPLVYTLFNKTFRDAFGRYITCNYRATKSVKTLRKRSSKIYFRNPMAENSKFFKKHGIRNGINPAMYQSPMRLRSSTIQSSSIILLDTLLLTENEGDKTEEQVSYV
Chain of D(1A) dopamine receptor (P21728 whole entry): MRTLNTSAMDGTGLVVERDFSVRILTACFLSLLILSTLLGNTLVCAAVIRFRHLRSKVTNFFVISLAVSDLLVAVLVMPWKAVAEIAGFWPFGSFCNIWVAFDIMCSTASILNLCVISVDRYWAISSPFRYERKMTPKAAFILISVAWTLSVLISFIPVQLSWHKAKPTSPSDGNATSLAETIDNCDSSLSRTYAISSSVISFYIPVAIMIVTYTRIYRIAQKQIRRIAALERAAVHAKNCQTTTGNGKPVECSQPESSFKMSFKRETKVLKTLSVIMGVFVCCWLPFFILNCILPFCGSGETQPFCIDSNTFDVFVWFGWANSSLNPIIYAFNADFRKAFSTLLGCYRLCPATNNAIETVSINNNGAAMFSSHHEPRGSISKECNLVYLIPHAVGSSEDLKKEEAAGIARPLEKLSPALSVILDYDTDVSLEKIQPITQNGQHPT
Chain of Melanocortin receptor 3 (P41968 whole entry): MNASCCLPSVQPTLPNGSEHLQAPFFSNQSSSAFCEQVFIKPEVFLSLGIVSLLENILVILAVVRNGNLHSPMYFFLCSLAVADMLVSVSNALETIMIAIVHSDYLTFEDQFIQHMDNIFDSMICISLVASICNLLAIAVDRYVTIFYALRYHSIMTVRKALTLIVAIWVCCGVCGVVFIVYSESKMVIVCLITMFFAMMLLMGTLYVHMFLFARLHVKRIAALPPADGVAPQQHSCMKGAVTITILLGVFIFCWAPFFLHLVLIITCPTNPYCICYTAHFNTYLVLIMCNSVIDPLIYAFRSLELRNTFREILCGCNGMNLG
Chain of D(3) dopamine receptor (P35462 whole entry): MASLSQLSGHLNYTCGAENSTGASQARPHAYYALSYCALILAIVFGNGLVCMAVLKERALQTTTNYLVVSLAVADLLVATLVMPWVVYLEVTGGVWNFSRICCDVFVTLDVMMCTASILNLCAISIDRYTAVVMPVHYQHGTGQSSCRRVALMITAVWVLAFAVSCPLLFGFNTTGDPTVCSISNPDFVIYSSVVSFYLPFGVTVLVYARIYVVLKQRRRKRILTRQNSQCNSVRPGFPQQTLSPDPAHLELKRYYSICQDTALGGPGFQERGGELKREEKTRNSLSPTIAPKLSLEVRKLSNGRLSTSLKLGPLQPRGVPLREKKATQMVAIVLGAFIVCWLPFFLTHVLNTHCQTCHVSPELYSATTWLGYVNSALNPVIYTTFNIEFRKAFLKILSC
Chain of Gamma-aminobutyric acid receptor subunit alpha-1 (P62813 whole entry): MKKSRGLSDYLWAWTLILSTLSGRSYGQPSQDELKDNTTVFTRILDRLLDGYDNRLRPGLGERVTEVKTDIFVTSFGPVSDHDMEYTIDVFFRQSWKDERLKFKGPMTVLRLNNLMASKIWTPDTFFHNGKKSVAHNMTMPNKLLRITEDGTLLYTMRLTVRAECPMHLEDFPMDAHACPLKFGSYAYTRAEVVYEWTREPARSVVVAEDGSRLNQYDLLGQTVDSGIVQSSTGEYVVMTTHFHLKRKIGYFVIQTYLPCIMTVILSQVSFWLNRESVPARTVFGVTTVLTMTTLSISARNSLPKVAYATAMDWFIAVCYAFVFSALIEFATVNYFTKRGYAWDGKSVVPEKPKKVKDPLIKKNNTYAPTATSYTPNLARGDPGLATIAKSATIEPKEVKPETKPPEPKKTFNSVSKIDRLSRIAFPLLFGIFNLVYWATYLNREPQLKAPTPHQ
Chain of 3',5'-cyclic-AMP phosphodiesterase 4D (Q08499 whole entry): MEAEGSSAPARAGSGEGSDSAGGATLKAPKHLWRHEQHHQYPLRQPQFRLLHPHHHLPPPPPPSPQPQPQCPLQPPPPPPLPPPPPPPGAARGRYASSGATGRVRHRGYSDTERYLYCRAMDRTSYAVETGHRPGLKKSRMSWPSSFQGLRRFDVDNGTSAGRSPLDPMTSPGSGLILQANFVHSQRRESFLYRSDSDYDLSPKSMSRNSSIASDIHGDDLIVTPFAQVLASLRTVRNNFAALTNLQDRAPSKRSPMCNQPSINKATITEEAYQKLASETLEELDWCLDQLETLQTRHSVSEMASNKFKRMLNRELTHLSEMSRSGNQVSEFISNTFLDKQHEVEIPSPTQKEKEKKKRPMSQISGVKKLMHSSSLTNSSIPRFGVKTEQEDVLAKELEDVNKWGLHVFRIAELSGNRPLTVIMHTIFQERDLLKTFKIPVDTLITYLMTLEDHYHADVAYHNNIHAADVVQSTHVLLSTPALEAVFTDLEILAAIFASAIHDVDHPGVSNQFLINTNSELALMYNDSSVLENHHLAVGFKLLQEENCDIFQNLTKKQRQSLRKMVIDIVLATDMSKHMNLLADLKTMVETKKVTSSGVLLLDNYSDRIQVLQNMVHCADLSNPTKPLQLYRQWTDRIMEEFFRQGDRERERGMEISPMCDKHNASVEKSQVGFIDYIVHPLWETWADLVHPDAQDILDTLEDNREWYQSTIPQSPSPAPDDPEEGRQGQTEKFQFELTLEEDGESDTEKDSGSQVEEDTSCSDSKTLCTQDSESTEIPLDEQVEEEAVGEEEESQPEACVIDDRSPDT

In the case of `CN1C(=O)CC(C)(c2ccccc2)C1=O` (stereo not given) [METHSUXIMIDE], the concentration at half-maximal activity (AC50) is over 10 µM in [1]; over 10 µM in assay [2]; over 10 µM in [3]; over 10 µM in [4]; over 10 µM in assay [5]; over 30 µM in assay [6]. The AC50 was over 10 µM in [7]; over 10 µM in assay [8]; over 30 µM in assay [9]; over 10 µM in [10]; over 30 µM in [11]; over 10 µM in [12]. Besides, the concentration at half-maximal activity (AC50) in assay [13] is over 30 µM.

On to `CO/N=C(\C(=O)N[C@@H]1C(=O)N2C(C(=O)[O-])=C(C[N+]3(C)CCCC3)CS[C@H]12)c1csc(N)n1`, for which the AC50 in [1], in [2], in [3], in assay [4], in assay [5] and in [6] was over 300 µM each time. For the same compound, the concentration at half-maximal activity (AC50) in assay [7], in [8], in [9], in [10], in [11] and in [12] was over 300 µM throughout. Further, the AC50 in [13] is over 300 µM.

With `NC(=O)c1cnccn1` [PYRAZINAMIDE], the concentration at half-maximal activity (AC50) in assay [1] was 3.86 µM; in assay [2], over 30 µM; in [3] it was over 30 µM; in [4], over 30 µM; in assay [5] it was over 30 µM; in assay [6], over 30 µM. For the same compound, the AC50 was over 30 µM in [7]; over 30 µM in assay [8]; over 30 µM in assay [9]; 12.6 µM in assay [10]; over 30 µM in [11]; over 30 µM in [12]. The same compound had an AC50 in assay [13] of over 30 µM.

With `O=C(O)c1cc(-c2ccc(F)cc2F)ccc1O` [DIFLUNISAL], the half-maximal activity concentration (AC50) in assay [1] is over 10 µM; in assay [2], over 10 µM; in assay [3], over 10 µM; in assay [4], over 10 µM; in assay [5], over 10 µM; in assay [6], over 30 µM. The AC50 in assay [7] is over 10 µM; in assay [8] it was over 10 µM; in [9], over 30 µM; in [10], over 10 µM; in [11], over 30 µM; in [12], over 10 µM. In [13], the AC50 is over 30 µM.

As to `CC(=O)c1ccc2c(c1)N(CCCN1CCN(CCO)CC1)c1ccccc1S2` [ACETOPHENAZINE], the concentration at half-maximal activity (AC50) in assay [1] was over 30 µM; in [2] it was over 30 µM; in assay [3] it was 1.2 µM; in [4] it was 0.72 µM; in assay [5], over 30 µM; in assay [6], over 30 µM. The AC50 is over 30 µM in assay [7]; 4.49 µM in assay [8]; 2.3 µM in assay [9]; over 30 µM in assay [10]; over 30 µM in assay [11]; over 30 µM in assay [12]. This compound also showed an AC50 in [13] of 0.0044 µM.

With `C[C@@H]1O[C@@H]1P(=O)(O)O` [FOSFOMYCIN], the AC50 in assay [1], in assay [2], in assay [3], in [4], in assay [5] and in [6] was over 10 µM throughout. In addition, the AC50 in assay [7] was over 10 µM; in assay [8], over 10 µM; in assay [9], over 30 µM; in assay [10], over 10 µM; in assay [11], over 30 µM; in assay [12], over 10 µM. The concentration at half-maximal activity (AC50) in assay [13] is over 30 µM.

With `CC(C)NCC(O)COc1ccc(COCCOC(C)C)cc1` (stereo not given) [BISOPROLOL], the concentration at half-maximal activity (AC50) in assay [1] is over 30 µM; in assay [2], over 10 µM; in assay [3] it was over 10 µM; in [4] it was over 10 µM; in [5], over 30 µM; in [6], over 10 µM. The AC50 was over 10 µM in assay [7]; over 10 µM in assay [8]; over 30 µM in assay [9]; over 30 µM in [10]; over 30 µM in assay [11]; over 30 µM in [12]. Also, the concentration at half-maximal activity (AC50) in [13] was over 30 µM.

For the compound `COC(=O)[C@@H]1CC2=CC(=O)CC[C@]2(C)[C@@]23O[C@@H]2C[C@@]2(C)[C@@H](CC[C@@]24CCC(=O)O4)[C@H]13` [EPLERENONE], the AC50 in assay [1], in [2], in assay [3], in assay [4], in assay [5] and in [6] was over 30 µM in each case. Moreover, the concentration at half-maximal activity (AC50) is over 10 µM in assay [7]; over 30 µM in [8]; over 30 µM in assay [9]; over 30 µM in assay [10]; over 30 µM in assay [11]; over 30 µM in assay [12]. This compound also came in with an AC50 in [13] of over 30 µM.

As for `Cc1ccc(C(=O)c2cc(O)c(O)c([N+](=O)[O-])c2)cc1` [TOLCAPONE], the AC50 in [1] is 11.9 µM; in [2] it was over 10 µM; in [3], over 10 µM; in assay [4], over 10 µM; in assay [5], over 10 µM; in [6], over 10 µM. Moreover, the AC50 in [7] is over 10 µM; in assay [8], over 10 µM; in assay [9] it was 1.95 µM; in assay [10], over 10 µM; in assay [11], over 30 µM; in [12], 12.7 µM. This compound came in with a concentration at half-maximal activity (AC50) in assay [13] of over 30 µM.

`OCCN1CCN(CCCN2c3ccccc3C=Cc3ccccc32)CC1` [OPIPRAMOL]: the AC50 in assay [1] was over 30 µM; in assay [2], over 30 µM; in [3], over 30 µM; in [4], 6.7 µM; in assay [5], over 30 µM; in [6], over 30 µM. The AC50 in assay [7] was over 30 µM; in assay [8], over 30 µM; in [9] it was 14 µM; in [10] it was over 30 µM; in [11] it was over 30 µM; in [12], over 30 µM. In assay [13], this compound showed an AC50 of 1.32 µM.
